Values quoted from earlier work as cited in US20100047451A1, “ACTINIC-RADIATION CURABLE INK COMPOSITION, INK SET, INK JET PRINTING APPARATUS, AND INK JET RECORDING METHOD USING ACTINIC-RADIATION CURABLE INK COMPOSITION” (SEIKO EPSON CORPORATION, priority 2008, published 2010).

Conditions: measurements at 25° C.

Viscosity [mPa · s]	Compound
5.1	C=CC(=O)OCC1COC(C)(CC)O1 (stereo not drawn) [(2-Methyl-2-ethyl-1,3-dioxolan-4-yl)methyl acrylate]
14	Polyethylene glycol 200 dimethacrylate

Conditions: primary irritation index

Compound	PII
C=C(C)C(=O)OCCOC(=O)C(=C)C [Ethylene glycol dimethacrylate]	0.6
Glycerol PO-modified triacrylate	0.8
C=CC(=O)OCC1COC(C)(CC)O1 (stereo not drawn) [(2-Methyl-2-ethyl-1,3-dioxolan-4-yl)methyl acrylate]	1.3
Polyethylene glycol 200 dimethacrylate	0.5
C=C(C)C(=O)OCC(O)COC(=O)C(=C)C [2-Hydroxy-1,3-dimethacryloxypropane]	0.6
Trimethylolpropane PO-modified triacrylate	0.1
C=C(C)C(=O)OCC(C)(C)COC(=O)C(=C)C [Neopentyl glycol dimethacrylate]	0.0
C=CC(=O)OCCOc1ccccc1 [Phenoxyethyl acrylate]	1.7
C=CC(=O)OCCCCCCCCCOC(=O)C=C [1,9-Nonanediol diacrylate]	2.0
C=CC(=O)OCC(C)OCC(C)OCC(C)OC(=O)C=C (stereo not drawn) [Tripropylene glycol diacrylate]	1.6
C=CC(=O)OCC1COC(C)(CC(C)C)O1 (stereo not drawn) [(2-Methyl-2-isobutyl-1,3-dioxolan-4-yl)methyl acrylate]	1.0
C=C(C)C(=O)OCCCCCCOC(=O)C(=C)C [1,6-Hexanediol dimethacrylate]	0.5
C=CC(=O)O[C@@H]1C[C@H]2CC[C@]1(C)C2(C)C [Isobornyl acrylate]	0.6
C=CC(=O)OCCOCCOC [Methoxy diethylene glycol monoacrylate]	0.7
Polyethylene glycol #400 diacrylate	0.4
C=CC(=O)N1CCOCC1 [Acryloylmorpholine]	0.5
C=C(C)C(=O)OCCOCCOC(=O)C(=C)C [Diethylene glycol dimethacrylate]	0.5
C=C(C)C(=O)OCC(CC)(COC(=O)C(=C)C)COC(=O)C(=C)C [Trimethylolpropane trimethacrylate]	0.8
Trimethylolpropane-modified triacrylate	1.5
